The target of assay [1] is T1, ROCK I (AA 6-553) (Homo sapiens, UniProt Q13464).
T1 construct: ROCK I (AA 6-553)
The assay can be described thus: ROCK inhibition assay, standard coupled enzyme system ("Enzyme"). The settings on record: enzyme-linked assay. It counts as biochemical. On the procedure: Compounds were screened for their ability to inhibit ROCK I (AA 6-553) activity using a standard coupled enzyme system (Fox et al. (1998) Protein Sci. 7, 2249). Reactions were carried out in a solution containing 100 mM HEPES (pH 7.5), 10 mM MgCl2, 25 mM NaCl, 2 mM DTT and 1.5% DMSO. Final substrate concentrations in the assay were 45 μM ATP (Sigma Chemicals, St Louis, Mo.) and 200 μM peptide (American Peptide, Sunnyvale, Calif.). Reactions were carried out at 30° C. and 45 nM ROCK L. Final concentrations of the components of the coupled enzyme system were 2.5 mM phosphoenolpyruvate, 350 μM NADH, 30 μg/ml pyruvate kinase and 10 μg/ml lactate dehydrogenase.

Assay [2] deals with T2, full length Aurora-A (AA 1-403) (Homo sapiens, UniProt O14965).
T2 construct: full length Aurora-A (AA 1-403)
T2 sequence (O14965 1-403): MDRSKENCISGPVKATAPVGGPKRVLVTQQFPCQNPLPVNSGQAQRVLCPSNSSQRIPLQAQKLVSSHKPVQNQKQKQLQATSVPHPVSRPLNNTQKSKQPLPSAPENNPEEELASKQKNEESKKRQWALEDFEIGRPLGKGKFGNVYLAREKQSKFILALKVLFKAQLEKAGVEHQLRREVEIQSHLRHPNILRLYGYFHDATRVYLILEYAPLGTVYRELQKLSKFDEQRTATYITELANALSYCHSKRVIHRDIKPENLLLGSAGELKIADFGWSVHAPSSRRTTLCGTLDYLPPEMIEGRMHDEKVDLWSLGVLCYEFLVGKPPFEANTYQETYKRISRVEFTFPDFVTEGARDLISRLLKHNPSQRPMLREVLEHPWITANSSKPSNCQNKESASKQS
Briefly: Aurora-A inhibition assay, standard coupled enzyme system. The settings on record: average Ki if more than one value determined. The class given is biochemical. On the procedure:
Compounds were screened for their ability to inhibit full length Aurora-A (AA 1-403) activity using a standard coupled enzyme system (Fox et al., Protein Sci. 7, pp. 2249 (1998)). Reactions were carried out in a solution containing 100 mM HEPES (pH 7.5), 10 mM MgCl2, 25 mM NaCl, 300 μM NADH, 1 mM DTT and 3% DMSO. Final substrate concentrations in the assay were 200 μM ATP (Sigma Chemicals, St Louis, Mo.) and 800 μM peptide (LRRASLG, American Peptide, Sunnyvale, Calif.). Reactions were carried out at 30° C. and 35 nM Aurora-A. Final concentrations of the components of the coupled enzyme system were 2.5 mM phosphoenolpyruvate, 200 μM NADH, 60 μg/ml pyruvate kinase and 20 μg/ml lactate dehydrogenase.
An assay stock buffer solution was prepared containing all of the reagents listed above with the exception of ATP and the test compound of interest. The assay stock buffer solution (60 μl) was incubated in a 96 well plate with 2 μl of the test compound of interest at final concentrations spanning 0.002 μM to 30 μM at 30° C. for 10 min. Typically, a 12 point titration was conducted by preparing serial dilutions (from 1 mM compound stocks) with DMSO of the test compounds in daughter plates. The reaction was initiated by the addition of 5 μl of ATP (final concentration 200 μM). Rates of reaction were obtained using a Molecular Devices Spectramax plate reader (Sunnyvale, Calif.) over 10 min at 30° C. The Ki values were determined from the rate data as a function of inhibitor concentration using computerized nonlinear regression (Prism 3.0, Graphpad Software, San Diego, Calif.). Aurora-C activity was screened in a similar manner using Aurora-C protein. Aurora-B activity was screened using a radioactive assay, such as described in Examples 1 and 2, but using Aurora-B protein.

A value given as a limit tells only on which side of the number the result lay.

From US8501446B2 (Vertex Pharmaceuticals Incorporated, priority 2004, dated 2013) come the findings set out here.

A word on the Ki: it is the dissociation constant of the complex between target and ligand, obtained from inhibition or displacement. High values mean weaker binding, low ones tighter binding.

T1 sequence (Q13464 6-553, species assumed): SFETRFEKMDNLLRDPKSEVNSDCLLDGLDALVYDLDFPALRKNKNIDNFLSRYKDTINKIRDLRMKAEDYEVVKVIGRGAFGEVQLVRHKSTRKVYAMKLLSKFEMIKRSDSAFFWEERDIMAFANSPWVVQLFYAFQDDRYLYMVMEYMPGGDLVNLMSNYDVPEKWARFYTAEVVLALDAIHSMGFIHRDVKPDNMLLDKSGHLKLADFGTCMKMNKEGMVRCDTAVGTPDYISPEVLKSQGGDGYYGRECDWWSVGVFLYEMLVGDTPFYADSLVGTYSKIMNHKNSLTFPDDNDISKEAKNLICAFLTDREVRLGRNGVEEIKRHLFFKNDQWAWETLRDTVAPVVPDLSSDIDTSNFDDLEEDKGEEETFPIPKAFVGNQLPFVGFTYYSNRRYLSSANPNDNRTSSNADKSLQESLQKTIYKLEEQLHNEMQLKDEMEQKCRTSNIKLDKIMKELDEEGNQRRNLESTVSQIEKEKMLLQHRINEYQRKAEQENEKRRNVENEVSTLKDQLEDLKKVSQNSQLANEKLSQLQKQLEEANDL

For `CC(C)NC(=O)[C@H](C)Nc1nc(-c2c[nH]c3ncc(Cl)cc23)ncc1F` [Compound 363], the Ki in assay [1] was 0.5 to 5 µM; in assay [2] it was less than 0.5 µM.

For the compound `OCCNc1cccc(-c2c[nH]c3ncc(-c4ccccc4)cc23)n1` [Compound 277], the Ki in assay [1] and in assay [2] was less than 0.5 µM in each case.

With `O=C(Nc1cccc(-c2c[nH]c3ncc(Cl)cc23)n1)c1cccnc1` [Compound 296], the results for the Ki in assay [1] and in assay [2] were 0.5 to 5 µM and less than 0.5 µM, respectively.

On to `C[C@H](Nc1nc(-c2c[nH]c3ncc([N+](=O)[O-])cc23)ncc1F)c1ccc(F)cc1` [Compound 342], for which the inhibition constant (Ki) is 0.5 to 5 µM in assay [1] and less than 0.5 µM in assay [2].

As for `CC(Nc1nc(-c2c[nH]c3ncc(Cl)cc23)ncc1F)c1ccc(Cl)cc1` (stereo not shown) [Compound 311], the Ki in assay [1] was 0.5 to 5 µM; in assay [2], less than 0.5 µM.

With `CS(=O)(=O)c1cccc(-c2c[nH]c3ncc(-c4ccc(F)cc4)cc23)c1` [Compound 221], the inhibition constant Ki in assay [1] and in assay [2] was less than 0.5 µM in each case.

For `Clc1cnc2[nH]cc(-c3cccc(Sc4ccccc4Cl)n3)c2c1` [Compound 248], the inhibition constant (Ki) is 0.5 to 5 µM in assay [1] and less than 0.5 µM in assay [2].

Turning to `Clc1cnc2[nH]cc(-c3cccc(NCCc4ccccc4)n3)c2c1` [Compound 264], the values for the Ki in assay [1] and in assay [2] were 0.5 to 5 µM and less than 0.5 µM, respectively.

Take `CC(C)CNC(=O)[C@H](C)Nc1nc(-c2c[nH]c3ncc(Cl)cc23)ncc1F` [Compound 364]: the inhibition constant (Ki) in assay [1] is 0.5 to 5 µM; in assay [2], less than 0.5 µM.

With `CC(=O)NCc1ccc(-c2c[nH]c3ncc(-c4ccccc4)cc23)cc1` [Compound 230], the inhibition constant (Ki) in assay [1] and in assay [2] was 0.5 to 5 µM each time.

As to `Fc1cnc(-c2c[nH]c3ncc(Cl)cc23)nc1N[C@@H]1CCNC1` [Compound 381], the inhibition constant (Ki) in assay [1] and in assay [2] was less than 0.5 µM in each case.

`Fc1cnc(-c2c[nH]c3ncc(Cl)cc23)nc1SCc1ccc(Cl)cc1` [Compound 308]: the Ki in assay [1] and in assay [2] was 0.5 to 5 µM in each case.

On to `C[C@H](Nc1nc(-c2c[nH]c3ncc(Cl)cc23)ncc1F)C(=O)N(C)C` [Compound 337], for which the inhibitory constant (Ki) in assay [1] is 0.5 to 5 µM; in assay [2], less than 0.5 µM.

For the compound `CN(c1ccccc1)c1cccc(-c2c[nH]c3ncc(Cl)cc23)n1` [Compound 284], the Ki in assay [1] and in assay [2] was 0.5 to 5 µM each time.

Regarding `CNS(=O)(=O)c1ccc(-c2cnc3[nH]cc(-c4ccc(C(N)=O)cc4)c3c2)cc1` [Compound 256], the inhibition constant (Ki) in assay [1] and in assay [2] was less than 0.5 µM in each case.

For `Fc1cnc(-c2c[nH]c3ncc(Cl)cc23)nc1NCC1CCOCC1` [Compound 366], the Ki in assay [1] is 0.5 to 5 µM; in assay [2] it was less than 0.5 µM.

Turning to `N#Cc1cc(-c2c[nH]c3ncc(Cl)cc23)nc(N2CCNCC2)c1` [Compound 399], the inhibition constant Ki in assay [1] and in assay [2] was less than 0.5 µM throughout.

Regarding `C[C@H](Nc1nc(-c2c[nH]c3ncc(C#CCO)cc23)ncc1F)c1ccc(F)cc1` [Compound 378], the Ki in assay [1] was 0.5 to 5 µM; in assay [2], less than 0.5 µM.

For `Nc1ccc(-c2c[nH]c3ncc(-c4ccccc4)cc23)cc1` [Compound 232], the Ki in assay [1] is 0.5 to 5 µM; in assay [2], less than 0.5 µM.

Turning to `CN1CCC(CNc2nc(-c3c[nH]c4ncc(Cl)cc34)ncc2F)CC1` [Compound 372], the Ki in assay [1] is 0.5 to 5 µM; in assay [2], less than 0.5 µM.

`Clc1ccc(CNc2cccc(-c3c[nH]c4ncc(Cl)cc34)n2)c(Cl)c1` [Compound 244]: the Ki in assay [1] and in assay [2] was 0.5 to 5 µM each time.

Turning to `C[C@@H](Nc1nc(-c2c[nH]c3ncc(Cl)cc23)ncc1F)c1ccc(N)cc1` [Compound 313], the values for the inhibitory constant (Ki) in assay [1] and in assay [2] were 0.5 to 5 µM and less than 0.5 µM, respectively.

For `Cc1ccc(CNc2cccc(-c3c[nH]c4ncc(Cl)cc34)n2)cc1` [Compound 254], the inhibition constant (Ki) in assay [1] was 0.5 to 5 µM; in assay [2] it was less than 0.5 µM.

Turning to `CN(C)CCCNc1cccc(-c2c[nH]c3ncc(Cl)cc23)n1` [Compound 271], the Ki in assay [1] is 0.5 to 5 µM; in assay [2] it was less than 0.5 µM.

For `CN(Cc1ccccc1)c1cccc(-c2c[nH]c3ncc(Cl)cc23)n1` [Compound 274], the figures for the Ki in assay [1] and in assay [2] were 0.5 to 5 µM and less than 0.5 µM, respectively.

As for `CN1CCN(c2cccc(-c3c[nH]c4ncc(Cl)cc34)n2)CC1` [Compound 275], the Ki in assay [1] and in assay [2] was 0.5 to 5 µM throughout.

Take `COc1ccc(CNc2cccc(-c3c[nH]c4ncc(Cl)cc34)n2)cc1OC` [Compound 297]: the Ki in assay [1] is 0.5 to 5 µM; in assay [2], less than 0.5 µM.

In the case of `NC(=O)c1ccc(-c2c[nH]c3ncc(-c4ccoc4)cc23)cc1` [Compound 235], the Ki in assay [1] and in assay [2] was less than 0.5 µM throughout.

Take `C[C@H](Nc1nc(-c2c[nH]c3ncc(C#N)cc23)ncc1F)c1ccc(F)cc1` [Compound 394]: the inhibition constant Ki was 0.5 to 5 µM in assay [1] and less than 0.5 µM in assay [2].

As for `COc1cccc(-c2cnc3[nH]cc(-c4ccc(C(N)=O)cc4)c3c2)c1` [Compound 239], the inhibition constant (Ki) in assay [1] and in assay [2] was less than 0.5 µM throughout.

As for `C[C@H](Nc1nc(-c2c[nH]c3ncc(Cl)cc23)ncc1F)C(=O)NC1CC1` [Compound 338], the inhibition constant Ki in assay [1] was 0.5 to 5 µM; in assay [2] it was less than 0.5 µM.

In the case of `CNc1cccc(-c2c[nH]c3ncc(Cl)cc23)n1` [Compound 298], the inhibitory constant (Ki) in assay [1] and in assay [2] was 0.5 to 5 µM in each case.

Take `Clc1cnc2[nH]cc(-c3cccc(NC4CCCC4)n3)c2c1` [Compound 289]: the Ki in assay [1] was 0.5 to 5 µM; in assay [2], less than 0.5 µM.

Regarding `Clc1cnc2[nH]cc(-c3cccc(Nc4ccccc4)n3)c2c1` [Compound 243], the results for the Ki in assay [1] and in assay [2] were 0.5 to 5 µM and less than 0.5 µM, respectively.

For the compound `O=Cc1ccc(-c2c[nH]c3ncc(-c4ccccc4)cc23)cc1` [Compound 229], the results for the inhibition constant (Ki) in assay [1] and in assay [2] were 0.5 to 5 µM and less than 0.5 µM, respectively.

As to `CNC(=O)[C@H](CC(C)C)Nc1nc(-c2c[nH]c3ncc(Cl)cc23)ncc1F` [Compound 393], the Ki in assay [1] was 0.5 to 5 µM; in assay [2] it was less than 0.5 µM.

Consider `C[C@H](Nc1nc(-c2c[nH]c3ncc(Cl)cc23)ncc1F)c1ccccc1` [Compound 286], for which the Ki in assay [1] is 0.5 to 5 µM; in assay [2] it was less than 0.5 µM.

`c1ccc(-c2cnc3[nH]cc(-c4cccc(N5CCCC5)n4)c3c2)cc1` [Compound 293]: the Ki in assay [1] and in assay [2] was 0.5 to 5 µM throughout.
